Molecular target: RNA-directed RNA polymerase (Hepacivirus hominis, UniProt Q8JXU8)
Assay: Inhibitory concentration required to inhibit HCV RNA dependent RNA polymerase Nonstructural protein 5B is determined

RNA-directed RNA polymerase, sequence (Q8JXU8 whole entry): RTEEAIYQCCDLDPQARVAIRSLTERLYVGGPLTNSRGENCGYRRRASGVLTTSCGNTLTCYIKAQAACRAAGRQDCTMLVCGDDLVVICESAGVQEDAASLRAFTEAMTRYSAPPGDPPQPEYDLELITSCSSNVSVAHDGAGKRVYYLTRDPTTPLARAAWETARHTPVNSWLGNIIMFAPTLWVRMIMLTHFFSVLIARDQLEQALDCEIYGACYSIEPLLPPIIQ

**Q.** Which IC50 does the source give for `O=C(O)C(=O)CC(=O)c1ccccc1` here?
**A.** The IC50 was 5.7 µM.

Source: BindingDB's records for doi:10.1021/jm0494669 (Italy. Vinc, 2004)
